Test system: heterotrophic micro-organisms
Experiment: BOD analyses with increasing perchlorate concentrations (respirometric, activated sludge)
Format: cell-based
Conditions: activated sludge from a MBBR reactor; perchlorate 5 and 35 mg L^-1; data not shown
Description: BOD analyses : For these measurements, the range was 0 - 400 mgO2 L^-1, the BOD test solutions were composed of: 141.6 mL of a mixture of carboxylic acids: oxalic acid (625 mg L^-1), maleic acid (137 mg L^-1), glyoxylic acid (261 mg L^-1), and formic acid oxalic acid (321 mg L^-1); 10 mL of a buffer solution: KH2PO4 (8.6 g L^-1), K2HPO4 (21.75 g L^-1), (Na2HPO4,2H2O) (33.4 g L^-1), NH4Cl (1.7 g L^-1); 0.4 mL of- Allylthiourea (C4H8N2S) (1 g L^-1), and 1 mL of activated sludge from a MBBR reactor who had been previously fed with the raw MLL for 4 months, completed with 11 mL concentrate solutions of perchlorate to obtain respective concentrations in perchlorate of 5 and 35 mg L^-1 in the final 164 mL liquid volume.
BOD analyses with increasing perchlorate concentrations have been performed following a similar procedure as previously explained in the last section. […]

With `[O-][Cl+3]([O-])([O-])O` [perchlorate] the “effect on heterotrophic micro-organisms” value was “inihibiting effect”.

Reference: patent publication EP4574773A1, “DEVICE AND METHOD FOR TREATING CO[…] EFFLUENTS” (Université Gustave Eiffel, priority 2023, dated 2025)
